{
  "source": "paper PMC12876990",
  "about": "“Targeting secreted PLA2 interactions with EGFR and vimentin to arrest prostate tumour growth” (Cell Death & Disease, 2025)",
  "assay": "28-day repeated dose oral toxicity study (OECD 407): overall toxicity, mortality",
  "format": "in vivo, male Sprague Dawley rats",
  "protocol": "Potential toxicity of c2 was evaluated with a 28-day repeated dose oral toxicity study (OECD 407) in male Sprague Dawley rats, with a recovery period. Animals (n = 10 per group) were treated with vehicle (1% carboxymethylcellulose in distilled water), c2 at 1 mg/kg or at 20 mg/kg every three days for 28 days. Animals were sacrificed on day 29 and blood and tissues were taken for further analysis. Two recovery groups treated concomitantly with the main study (n = 5, vehicle of 20 mg/kg c2) were monitored for a further 14-day treatment-free period, sacrificed on Day 43 and blood and tissues taken for analysis. (Data available on request).\n2.8.4. Repeated dose toxicity\nRepeated do se toxicity is the adver se effects o ccurring within a short time of several repeated administrations of a test item over a defined period.\nThe test item is the article that is the subject of the study.\nVehicle is any agent, which serves as a carrier used to mix, disperse, or solubilize the test item or reference item to facilitate the administration/application to the test system.\n2.9. Principle of the test method\nThe test item suspension or vehicle was administered orally by gavage every three days for 28 days to three groups of male rat s at two do se le vels (low - 1 and high - 20 mg/kg) to as ses s toxicity. Two vehicle control groups were dosed with the vehicle. A recovery group was included to investigate reversibility of any toxicity and persistence or delayed occurrence of […]\nDaily clinical obs ervations were performed. Weekly detailed clinical examination s were performed on all animals. Functional observations were performed in the last week of treatment.\nBody weights were monitored weekly throughout the study. Feed intake was measured weekly.\nGross necropsy was conducted in all animals th at died or were killed during the study. Full blood analysis and detailed histopathology was performed on conclusion of the main study.\nAll tissues and carcasse s were placed in 10% formalin and retained for a period of 6 months. […]\n3.1. Regulatory references\nThe study was conducted according to the OECD Guidelines for the Testing of Chemical s, No.407 - Repeated Dose 28-Day Oral Toxicity Study in Rodents. [Adopted: 3 October […]\n3.1.2. Good Laboratory Practice\nThis study was conducted in accordance with the Organization of Economic Cooperation and Development (OECD) Principles of Good Laboratory Practice (as revised in 1997) ENV/MC/CHEM (98) 17. The study was performed in accordance with the agreed protocol and with ICP Firefly Pty Ltd Standard Operating Procedures (SOPs).\n3.1.3. Animal Welfare Act compliance\nThe experimental protocol was approved by the ICP Firefly Animal Ethics Committee, and […]\nRegulation 2005 and the Code of Practice under t hat Regulation. It was granted Approval […]\nThe Sponsor provided a Certificate of Analysis for the test item, which is attached a s an appendix to the report (Appendix A Certificate of Analysis). […]\n3.4.1. Justification for species selection\nThe Specific Pathogen Free [SPF] male Sprague Dawley rat was selected since it is widely accepted and recognised by international guidelines as an appropriate experimental model […]\n3.4.2. Species, strain source and housing\nA total of 40 young adult Spe cific Pathogen Fr ee Mal e Sprague D awley rats weighing between 189 and 212 grams the b eginning of the experiment were used for the study. The animals were obtained from Animal Resources Ce ntre (ARC), WA, Australia. […]",
  "note": "“Also recorded” adds a separate entry of the source. Square brackets hold non-standard residues; d marks the D form. Peptide text beside a SMILES is read from it. 2Nal = N[C@@H](Cc1ccc2ccccc2c1)C(=O)O",
  "data": [
    {"smiles": "CC(C)C[C@@H]1NC(=O)[C@H](Cc2ccc3ccccc3c2)NC(=O)[C@H](CCCNC(=N)N)NC(=O)[C@H](Cc2ccc3ccccc3c2)NC(=O)[C@H](CO)NC1=O", "note": "[c2, cyclo-((2-Nal)-Leu-Ser-(2-Nal)-Arg)] (cyclo([2Nal]LS[2Nal]R))", "values": [
      {"measurement": "effective concentration relative to the maximum observed dosage with no toxicity", "setting": "0.1 mg/kg vs 40 mg/kg", "value": 400, "unit": "times"},
      {"measurement": "urinalysis and blood analysis", "setting": "1 and 20 mg/kg", "value": "no test item related effects"},
      {"measurement": "toxicity (all measures)", "setting": "1 and 20 mg/kg po every three days over 28 days", "value": "no observable toxicity; also recorded: no toxic effects"},
      {"measurement": "mortality related to the treatment", "setting": "1 and 20 mg/kg, main and recovery study", "value": "No mortalities"},
      {"measurement": "NOAEL at 672 h", "setting": "male, Sprague Dawley, rat, in vivo, po, Appendix 1, read-out: maximum observed dosage with no toxicity", "value": 40, "unit": "mg/kg"}
    ]}
  ]
}
